From ChEMBL document CHEMBL4507305, “Data for DCP probe TP-024” (2021)

Tests used:
[1] = system: Tyrosine-protein kinase ABL1 (Homo sapiens), P00519 [F317I]; settings: Compound concentration 1000.0 nM
[2] = target: Activin receptor type-1-like (Homo sapiens) (UniProt P37023); settings: Compound concentration 1000.0 nM
[3] = target: Atypical kinase COQ8A, mitochondrial (Homo sapiens) (UniProt Q8NI60); settings: Compound concentration 1000.0 nM
[4] = target: 5'-AMP-activated protein kinase catalytic subunit alpha-1 (Homo sapiens) (UniProt Q13131); settings: Compound concentration 1000.0 nM
[5] = target: 5'-AMP-activated protein kinase catalytic subunit alpha-2 (Homo sapiens) (UniProt P54646); settings: Compound concentration 1000.0 nM
[6] = target: Tyrosine-protein kinase receptor UFO (Homo sapiens) (UniProt P30530); settings: Compound concentration 1000.0 nM
[7] = system: Serine/threonine-protein kinase B-raf (Homo sapiens), P15056 [V600E]; settings: Compound concentration 1000.0 nM
[8] = target: Serine/threonine-protein kinase BRSK1 (Homo sapiens) (UniProt Q8TDC3); settings: Compound concentration 1000.0 nM
[9] = target: Calcium/calmodulin-dependent protein kinase type II subunit gamma (Homo sapiens) (UniProt Q13555); settings: Compound concentration 1000.0 nM
[10] = target: Dual specificity protein kinase CLK2 (Homo sapiens) (UniProt P49760); settings: Compound concentration 1000.0 nM
[11] = target: Myotonin-protein kinase (Homo sapiens) (UniProt Q09013); settings: Compound concentration 1000.0 nM
[12] = target: Serine/threonine-protein kinase 17A (Homo sapiens) (UniProt Q9UEE5); settings: Compound concentration 1000.0 nM
[13] = system: Epidermal growth factor receptor (Homo sapiens), P00533 [UNDEFINED MUTATION]; settings: Compound concentration 1000.0 nM
[14] = target: Ephrin type-A receptor 1 (Homo sapiens) (UniProt P21709); settings: Compound concentration 1000.0 nM
[15] = target: Ephrin type-A receptor 4 (Homo sapiens) (UniProt P54764); settings: Compound concentration 1000.0 nM
[16] = target: Ephrin type-A receptor 8 (Homo sapiens) (UniProt P29322); settings: Compound concentration 1000.0 nM
[17] = target: Mitogen-activated protein kinase 3 (Homo sapiens) (UniProt P27361); settings: Compound concentration 1000.0 nM
[18] = target: Fibroblast growth factor receptor 2 (Homo sapiens) (UniProt P21802); settings: Compound concentration 1000.0 nM
[19] = target: Receptor-type tyrosine-protein kinase FLT3 (Homo sapiens) (UniProt P36888); settings: Compound concentration 1000.0 nM
[20] = target: Rhodopsin kinase GRK7 (Homo sapiens) (UniProt Q8WTQ7); settings: Compound concentration 1000.0 nM
[21] = target: Homeodomain-interacting protein kinase 3 (Homo sapiens) (UniProt Q9H422); settings: Compound concentration 1000.0 nM
[22] = target: Tyrosine-protein kinase Lck (Homo sapiens) (UniProt P06239); settings: Compound concentration 1000.0 nM
[23] = system: Leucine-rich repeat serine/threonine-protein kinase 2 (Homo sapiens), Q5S007 [G2019S]; settings: Compound concentration 1000.0 nM
[24] = target: Mitogen-activated protein kinase kinase kinase kinase 5 (Homo sapiens) (UniProt Q9Y4K4); settings: Compound concentration 1000.0 nM
[25] = target: Hepatocyte growth factor receptor (Homo sapiens) (UniProt P08581); settings: Compound concentration 1000.0 nM
[26] = target: MAP kinase-interacting serine/threonine-protein kinase 2 (Homo sapiens) (UniProt Q9HBH9); settings: Compound concentration 1000.0 nM
[27] = target: Serine/threonine-protein kinase 4 (Homo sapiens) (UniProt Q13043); settings: Compound concentration 1000.0 nM
[28] = target: Cyclin-dependent kinase 18 (Homo sapiens) (UniProt Q07002); settings: Compound concentration 1000.0 nM
[29] = target: Platelet-derived growth factor receptor beta (Homo sapiens) (UniProt P09619); settings: Compound concentration 1000.0 nM
[30] = target: Phosphorylase b kinase gamma catalytic chain, skeletal muscle/heart isoform (Homo sapiens) (UniProt Q16816); settings: Compound concentration 1000.0 nM
[31] = target: Phosphatidylinositol 3-kinase C2 domain-containing subunit gamma (Homo sapiens) (UniProt O75747); settings: Compound concentration 1000.0 nM
[32] = system: Phosphatidylinositol 4,5-bisphosphate 3-kinase catalytic subunit alpha isoform (Homo sapiens), P42336 [E545K]; settings: Compound concentration 1000.0 nM
[33] = target: Serine/threonine-protein kinase pim-1 (Homo sapiens) (UniProt P11309); settings: Compound concentration 1000.0 nM
[34] = target: Serine/threonine-protein kinase PLK1 (Homo sapiens) (UniProt P53350); settings: Compound concentration 1000.0 nM
[35] = target: Serine/threonine-protein kinase PLK2 (Homo sapiens) (UniProt Q9NYY3); settings: Compound concentration 1000.0 nM
[36] = target: Serine/threonine-protein kinase PRP4 homolog (Homo sapiens) (UniProt Q13523); settings: Compound concentration 1000.0 nM
[37] = target: Protein-tyrosine kinase 2-beta (Homo sapiens) (UniProt Q14289); settings: Compound concentration 1000.0 nM
[38] = target: Serine/threonine-protein kinase RIO3 (Homo sapiens) (UniProt O14730); settings: Compound concentration 1000.0 nM
[39] = target: Uncharacterized serine/threonine-protein kinase SBK3 (Homo sapiens) (UniProt P0C264); settings: Compound concentration 1000.0 nM
[40] = target: SRSF protein kinase 3 (Homo sapiens) (UniProt Q9UPE1); settings: Compound concentration 1000.0 nM
[41] = target: Serine/threonine-protein kinase 35 (Homo sapiens) (UniProt Q8TDR2); settings: Compound concentration 1000.0 nM
[42] = target: Dual specificity testis-specific protein kinase 1 (Homo sapiens) (UniProt Q15569); settings: Compound concentration 1000.0 nM
[43] = target: Serine/threonine-protein kinase ULK3 (Homo sapiens) (UniProt Q6PHR2); settings: Compound concentration 1000.0 nM
[44] = target: 5-hydroxytryptamine receptor 2B (Homo sapiens) (UniProt P41595); settings: Compound concentration 10.0 uM
[45] = target: Alpha-2C adrenergic receptor (Homo sapiens) (UniProt P18825); settings: Compound concentration 10.0 uM

Serine/threonine-protein kinase RIO3 (Homo sapiens), sequence (O14730 whole entry): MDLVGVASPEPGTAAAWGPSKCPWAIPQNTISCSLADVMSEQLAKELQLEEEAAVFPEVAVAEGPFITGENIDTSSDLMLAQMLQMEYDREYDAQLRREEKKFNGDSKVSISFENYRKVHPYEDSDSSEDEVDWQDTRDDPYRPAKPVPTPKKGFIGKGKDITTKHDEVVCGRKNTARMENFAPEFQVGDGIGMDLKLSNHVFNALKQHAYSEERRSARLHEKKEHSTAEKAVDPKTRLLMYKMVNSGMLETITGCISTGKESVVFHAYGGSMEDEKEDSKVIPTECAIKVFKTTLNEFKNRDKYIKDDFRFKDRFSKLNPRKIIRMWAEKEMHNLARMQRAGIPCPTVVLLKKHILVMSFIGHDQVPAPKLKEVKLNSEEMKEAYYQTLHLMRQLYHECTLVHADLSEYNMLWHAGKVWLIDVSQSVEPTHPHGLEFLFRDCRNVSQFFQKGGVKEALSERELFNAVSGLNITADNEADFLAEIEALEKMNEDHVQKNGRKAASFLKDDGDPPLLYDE
SRSF protein kinase 3 (Homo sapiens), sequence (Q9UPE1 whole entry): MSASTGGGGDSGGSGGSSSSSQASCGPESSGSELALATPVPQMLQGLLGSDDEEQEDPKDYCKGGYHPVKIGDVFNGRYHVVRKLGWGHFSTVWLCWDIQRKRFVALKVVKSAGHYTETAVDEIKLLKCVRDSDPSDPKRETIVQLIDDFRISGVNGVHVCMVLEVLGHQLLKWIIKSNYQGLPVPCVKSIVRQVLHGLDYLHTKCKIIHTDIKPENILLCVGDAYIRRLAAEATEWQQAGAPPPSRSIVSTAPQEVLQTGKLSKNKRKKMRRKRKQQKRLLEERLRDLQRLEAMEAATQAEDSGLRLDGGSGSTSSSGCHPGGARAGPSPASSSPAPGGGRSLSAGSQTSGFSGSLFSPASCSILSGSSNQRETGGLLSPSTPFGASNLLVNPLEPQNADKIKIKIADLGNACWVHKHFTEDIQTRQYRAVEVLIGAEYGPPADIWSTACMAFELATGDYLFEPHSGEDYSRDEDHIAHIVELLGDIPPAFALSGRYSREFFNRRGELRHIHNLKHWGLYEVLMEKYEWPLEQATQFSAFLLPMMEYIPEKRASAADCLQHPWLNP
Rhodopsin kinase GRK7 (Homo sapiens), sequence (Q8WTQ7 whole entry): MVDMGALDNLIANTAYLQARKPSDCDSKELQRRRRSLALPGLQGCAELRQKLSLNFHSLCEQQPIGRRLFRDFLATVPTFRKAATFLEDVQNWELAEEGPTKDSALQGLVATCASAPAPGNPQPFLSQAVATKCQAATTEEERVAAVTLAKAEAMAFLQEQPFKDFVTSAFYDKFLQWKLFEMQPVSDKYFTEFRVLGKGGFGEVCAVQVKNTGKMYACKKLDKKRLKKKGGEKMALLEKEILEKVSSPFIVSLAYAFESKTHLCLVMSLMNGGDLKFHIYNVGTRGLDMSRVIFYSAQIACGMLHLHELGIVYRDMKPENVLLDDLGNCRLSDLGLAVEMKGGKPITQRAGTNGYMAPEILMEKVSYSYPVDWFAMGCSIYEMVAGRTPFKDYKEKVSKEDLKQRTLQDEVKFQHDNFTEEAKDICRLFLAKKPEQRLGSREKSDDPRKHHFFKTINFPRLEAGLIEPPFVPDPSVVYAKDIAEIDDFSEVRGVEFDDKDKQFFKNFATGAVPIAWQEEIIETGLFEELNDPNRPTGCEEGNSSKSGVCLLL
Tyrosine-protein kinase receptor UFO (Homo sapiens), sequence (P30530 whole entry): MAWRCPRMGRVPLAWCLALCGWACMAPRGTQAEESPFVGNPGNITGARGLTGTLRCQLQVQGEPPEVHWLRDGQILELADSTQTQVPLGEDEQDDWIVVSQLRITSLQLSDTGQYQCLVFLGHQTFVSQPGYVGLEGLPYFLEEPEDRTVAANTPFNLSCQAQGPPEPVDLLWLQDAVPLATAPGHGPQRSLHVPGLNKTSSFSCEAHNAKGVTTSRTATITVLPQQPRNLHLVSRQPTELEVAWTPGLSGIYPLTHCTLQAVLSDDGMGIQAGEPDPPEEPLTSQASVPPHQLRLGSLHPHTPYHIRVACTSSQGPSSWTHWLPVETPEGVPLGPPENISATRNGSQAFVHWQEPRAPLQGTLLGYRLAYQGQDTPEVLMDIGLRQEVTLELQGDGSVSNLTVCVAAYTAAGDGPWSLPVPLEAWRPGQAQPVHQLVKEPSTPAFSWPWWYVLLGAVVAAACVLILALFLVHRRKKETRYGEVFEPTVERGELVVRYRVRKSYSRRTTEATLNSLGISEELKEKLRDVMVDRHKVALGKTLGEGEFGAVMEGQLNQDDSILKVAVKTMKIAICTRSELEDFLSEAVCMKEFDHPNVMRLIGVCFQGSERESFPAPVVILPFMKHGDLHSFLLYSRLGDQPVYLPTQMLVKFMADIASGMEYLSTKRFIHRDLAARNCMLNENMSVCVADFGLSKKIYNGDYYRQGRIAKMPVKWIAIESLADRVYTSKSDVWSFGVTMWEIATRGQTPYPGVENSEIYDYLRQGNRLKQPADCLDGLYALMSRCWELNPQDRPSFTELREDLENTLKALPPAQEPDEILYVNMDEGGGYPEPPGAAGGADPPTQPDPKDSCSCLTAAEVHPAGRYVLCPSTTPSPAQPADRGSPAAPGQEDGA
Ephrin type-A receptor 8 (Homo sapiens), sequence (P29322 whole entry): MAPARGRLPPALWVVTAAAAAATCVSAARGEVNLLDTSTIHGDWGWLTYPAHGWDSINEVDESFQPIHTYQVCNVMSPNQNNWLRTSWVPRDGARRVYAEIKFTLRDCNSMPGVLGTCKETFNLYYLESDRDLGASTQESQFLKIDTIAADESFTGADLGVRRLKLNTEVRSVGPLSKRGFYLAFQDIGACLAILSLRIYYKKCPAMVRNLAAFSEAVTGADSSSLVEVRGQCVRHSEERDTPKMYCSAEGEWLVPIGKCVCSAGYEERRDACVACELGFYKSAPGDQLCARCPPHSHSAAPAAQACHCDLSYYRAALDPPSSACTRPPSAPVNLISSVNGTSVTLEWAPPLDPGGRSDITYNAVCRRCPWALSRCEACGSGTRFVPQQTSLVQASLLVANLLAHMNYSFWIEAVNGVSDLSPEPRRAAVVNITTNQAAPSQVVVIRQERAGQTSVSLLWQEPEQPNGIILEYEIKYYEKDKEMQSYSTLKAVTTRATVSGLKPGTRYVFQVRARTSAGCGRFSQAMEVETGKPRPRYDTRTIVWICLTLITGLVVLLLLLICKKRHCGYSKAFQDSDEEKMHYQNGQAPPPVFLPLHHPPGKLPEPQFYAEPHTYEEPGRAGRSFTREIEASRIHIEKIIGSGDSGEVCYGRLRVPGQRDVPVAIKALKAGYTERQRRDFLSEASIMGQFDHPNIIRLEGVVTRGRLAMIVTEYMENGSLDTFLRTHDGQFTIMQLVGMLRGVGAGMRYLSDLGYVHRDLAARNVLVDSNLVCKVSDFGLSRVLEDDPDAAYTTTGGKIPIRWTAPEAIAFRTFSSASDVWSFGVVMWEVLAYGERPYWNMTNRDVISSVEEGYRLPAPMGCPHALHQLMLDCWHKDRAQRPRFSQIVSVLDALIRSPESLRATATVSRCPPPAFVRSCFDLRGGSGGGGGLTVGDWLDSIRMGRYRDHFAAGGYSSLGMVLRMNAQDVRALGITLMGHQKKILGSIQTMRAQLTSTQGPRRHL
Calcium/calmodulin-dependent protein kinase type II subunit gamma (Homo sapiens), sequence (Q13555 whole entry): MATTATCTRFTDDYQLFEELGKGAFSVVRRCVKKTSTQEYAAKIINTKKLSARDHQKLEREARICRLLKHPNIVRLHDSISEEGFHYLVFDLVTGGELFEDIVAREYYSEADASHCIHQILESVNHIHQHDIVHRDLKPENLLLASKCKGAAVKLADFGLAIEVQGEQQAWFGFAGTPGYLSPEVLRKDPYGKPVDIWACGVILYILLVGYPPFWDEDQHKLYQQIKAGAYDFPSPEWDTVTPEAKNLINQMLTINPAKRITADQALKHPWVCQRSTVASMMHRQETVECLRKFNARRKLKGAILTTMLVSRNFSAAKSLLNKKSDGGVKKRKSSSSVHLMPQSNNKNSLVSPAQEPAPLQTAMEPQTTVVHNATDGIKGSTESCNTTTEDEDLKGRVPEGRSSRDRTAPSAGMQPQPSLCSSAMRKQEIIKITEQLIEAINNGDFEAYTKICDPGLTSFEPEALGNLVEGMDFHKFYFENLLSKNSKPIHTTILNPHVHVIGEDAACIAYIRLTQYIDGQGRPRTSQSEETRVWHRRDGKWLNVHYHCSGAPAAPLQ
Serine/threonine-protein kinase PLK2 (Homo sapiens), sequence (Q9NYY3 whole entry, looked up): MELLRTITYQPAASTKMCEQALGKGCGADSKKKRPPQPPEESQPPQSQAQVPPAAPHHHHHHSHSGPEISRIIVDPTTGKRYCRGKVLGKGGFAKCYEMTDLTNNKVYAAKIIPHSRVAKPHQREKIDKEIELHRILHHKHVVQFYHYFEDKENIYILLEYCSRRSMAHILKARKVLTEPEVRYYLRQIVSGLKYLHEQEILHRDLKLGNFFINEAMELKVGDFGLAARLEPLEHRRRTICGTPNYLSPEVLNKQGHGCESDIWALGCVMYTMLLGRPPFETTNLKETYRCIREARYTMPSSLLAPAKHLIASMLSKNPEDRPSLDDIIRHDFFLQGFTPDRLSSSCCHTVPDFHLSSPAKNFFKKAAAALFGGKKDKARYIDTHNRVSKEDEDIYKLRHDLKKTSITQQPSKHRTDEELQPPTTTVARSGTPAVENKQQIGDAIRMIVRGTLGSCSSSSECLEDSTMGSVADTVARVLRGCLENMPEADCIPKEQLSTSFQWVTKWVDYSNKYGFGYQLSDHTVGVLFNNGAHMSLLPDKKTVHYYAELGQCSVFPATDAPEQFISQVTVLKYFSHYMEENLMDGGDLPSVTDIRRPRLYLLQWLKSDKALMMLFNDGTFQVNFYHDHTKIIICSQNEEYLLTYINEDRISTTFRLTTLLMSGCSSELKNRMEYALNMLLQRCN

## Cc1cc(-n2nc(Cc3cc(F)cc(C(F)(F)F)c3)nc2C)ccc1C(N)=O [TP-024]
[1]
  residual activity: 85%
[2]
  residual activity: 100%
[3]
  residual activity: 100%
[4]
  residual activity: 100%
[5]
  residual activity: 100%
[6]
  residual activity: 99%
[7]
  residual activity: 100%
[8]
  residual activity: 100%
[9]
  residual activity: 100%
[10]
  residual activity: 94%
[11]
  residual activity: 100%
[12]
  residual activity: 100%
[13]
  residual activity: 100%
[14]
  residual activity: 100%
[15]
  residual activity: 96%
[16]
  residual activity: 100%
[17]
  residual activity: 100%
[18]
  residual activity: 100%
[19]
  residual activity: 100%
[20]
  residual activity: 100%
[21]
  residual activity: 100%
[22]
  residual activity: 100%
[23]
  residual activity: 100%
[24]
  residual activity: 100%
[25]
  residual activity: 81%
[26]
  residual activity: 100%
[27]
  residual activity: 100%
[28]
  residual activity: 100%
[29]
  residual activity: 98%
[30]
  residual activity: 98%
[31]
  residual activity: 100%
[32]
  residual activity: 71%
[33]
  residual activity: 100%
[34]
  residual activity: 100%
[35]
  residual activity: 100%
[36]
  residual activity: 54%
[37]
  residual activity: 100%
[38]
  residual activity: 100%
[39]
  residual activity: 91%
[40]
  residual activity: 100%
[41]
  residual activity: 100%
[42]
  residual activity: 100%
[43]
  residual activity: 100%
[44]
  inhibition: -2.51%
[45]
  inhibition: 9.76%

## Cc1nc(Cc2cccc(C(F)(F)F)c2)sc1-c1ccc(C(N)=O)nc1 [TP-024n]
[1]
  residual activity: 83%
[2]
  residual activity: 99%
[3]
  residual activity: 62%
[4]
  residual activity: 100%
[5]
  residual activity: 96%
[6]
  residual activity: 100%
[7]
  residual activity: 100%
[8]
  residual activity: 100%
[9]
  residual activity: 93%
[10]
  residual activity: 100%
[11]
  residual activity: 100%
[12]
  residual activity: 82%
[13]
  residual activity: 0%
[14]
  residual activity: 81%
[15]
  residual activity: 100%
[16]
  residual activity: 100%
[17]
  residual activity: 96%
[18]
  residual activity: 100%
[19]
  residual activity: 87%
[20]
  residual activity: 100%
[21]
  residual activity: 100%
[22]
  residual activity: 100%
[23]
  residual activity: 82%
[24]
  residual activity: 87%
[25]
  residual activity: 63%
[26]
  residual activity: 100%
[27]
  residual activity: 100%
[28]
  residual activity: 100%
[29]
  residual activity: 92%
[30]
  residual activity: 84%
[31]
  residual activity: 93%
[32]
  residual activity: 77%
[33]
  residual activity: 96%
[34]
  residual activity: 100%
[35]
  residual activity: 82%
[36]
  residual activity: 70%
[37]
  residual activity: 100%
[38]
  residual activity: 100%
[39]
  residual activity: 100%
[40]
  residual activity: 100%
[41]
  residual activity: 100%
[42]
  residual activity: 88%
[43]
  residual activity: 100%
[44]
  inhibition: 33.7%
[45]
  inhibition: 8.38%
